From patent US10588910B2, “Pharmaceutical composition comprising epidithiodioxopiperazine compound or derivative thereof, or pharmaceutically acceptable salt thereof, for preventing or treating pulmonary hypertension” (priority 2016, dated 2020)
Values joined by “and” are separate entries in the source; they are usually repeats but may differ in a detail not shown here. Equal entries are not always repeated.

Tested on: rat models in which pulmonary arterial hypertension is induced by monocrotaline (MCT)
Test: Monocrotaline-induced pulmonary arterial hypertension rat model: heart mass, RV/(LV+septum) ratio, pulmonary arterial wall thickness (H&E)
Type: in vivo, Male SD rats
Conditions: for hypertrophy of the right ventricle and pulmonary artery intimal thickening: animals with pulmonary arterial hypertension induced by monocrotaline; for hypertrophy of the right ventricle and pulmonary artery intimal thickening / therapeutic effect on pulmonary arterial hypertension: summary statement; for Total mass (heart) / LV + Septum (mass), Average / RV (right ventricle mass), Average / RV/LV + Septum, Average / Total mass (heart), Average / LV + Septum (mass) / RV (right ventricle mass) / RV/LV + Septum: 3 weeks; for Total mass (heart) / LV + Septum (mass) / RV (right ventricle mass) / RV/LV + Septum: individual rats; for LV + Septum (mass), Average / RV (right ventricle mass), Average / RV/LV + Septum, Average / Total mass (heart), Average: group average
Procedure: Male SD rats weighing approximately 210 g were used as animal models. In order to induce pulmonary arterial hypertension, a single intraperitoneal injection of monocrotaline (MCT) at a dose of 60 mg/kg was carried out. Accordingly, the rat models in which pulmonary arterial hypertension is induced were maintained for 3 weeks while test drugs were administered or not administered, and then the rat models were sacrificed. Thereafter, the hearts were excised and analyzed.
Chaetocin (the compound of Formula 2), which is a representative epidithiodioxopiperazine compound, was administered as a test drug to the pulmonary arterial hypertension animal models prepared according to Preparation Example 1 above at each dose of 6 μg, 12 μg, and 30 μg every 3 days. Normal rats in which MCT is not administered were used as the control group; and rats in which pulmonary arterial hypertension is induced by administering only MCT were used as the MCT group. The control group and each experimental group consisted of 3 to 4 rats.
The hearts were excised as in Preparation Example 1, and the excised hearts were measured for their total mass. Thereafter, the right ventricle (RV) was separated and the masses of each of the right ventricle, left ventricle, and cardiac septum (LV+septum) were separately measured to calculate the ratio. The results of the measurement of each experimental animal, the normal rats (control group), the MCT group, and the experimental groups (chaetocin groups; MCT+(dose μg)) in which chaetocin is administered at each dose of 30 μg, 12 μg, and 6 μg are shown in order in Tables 1 to 5.
Further, the sizes of the excised entire hearts and separated right ventricles were visually observed (FIG. 1), and the thicknesses of the pulmonary arterial walls were measured by H&E staining (FIGS. 2 to 11). In addition, in order to visualize the difference in the heart and pulmonary artery according to the dose-dependent chaetocin administration after the pulmonary arterial hypertension induction in the pulmonary arterial hypertension model, the average values of the heart mass, the ratio of the right ventricle to the left ventricle, and the thickness of the pulmonary artery wall, which are calculated from the hearts excised from each animal model, are shown in FIGS. 12 to 14, respectively. […]

[1] = MCT rats, chaetocin 6 μg every 3 days
[2] = MCT rats, chaetocin 12 μg every 3 days
[3] = MCT rats, chaetocin 30 μg every 3 days

## CN1C(=O)C2SSC1C(=O)N2C [5,7-Dimethyl-2,3-dithia-5,7-diazabicyclo[2.2.2]octane-6,8-dione]
  hypertrophy of the right ventricle and pulmonary artery intimal thickening: reduced to a level similar to normal
  therapeutic effect on pulmonary arterial hypertension: excellent therapeutic effect

## CN1C(=O)C23CC4(C56CC78SSC(CO)(C(=O)N7C5Nc5ccccc56)N(C)C8=O)c5ccccc5NC4N2C(=O)C1(CO)SS3 (stereo not shown) [chaetocin]
MCT 60 mg/kg i.p. rats, chaetocin 30 μg every 3 days
  Total mass (heart): 1185 mg and 865 mg and 1135 mg and 1258 mg
[1]
  LV + Septum (mass), Average: 718.3 mg
  RV (right ventricle mass), Average: 190.0 mg
  RV/LV + Septum, Average: 0.26
  Total mass (heart), Average: 908.3 mg
  LV + Septum (mass): 732 mg and 681 mg and 742 mg
  RV (right ventricle mass): 190 mg and 175 mg and 205 mg
  RV/LV + Septum: 0.26 (2×) and 0.28
  Total mass (heart): 922 mg and 856 mg and 947 mg
[2]
  LV + Septum (mass), Average: 935.7 mg
  RV (right ventricle mass), Average: 259.0 mg
  RV/LV + Septum, Average: 0.28
  Total mass (heart), Average: 1194.7 mg
  LV + Septum (mass): 913 mg and 968 mg and 926 mg
  RV (right ventricle mass): 261 mg and 295 mg and 221 mg
  RV/LV + Septum: 0.29 and 0.30 and 0.24
  Total mass (heart): 1174 mg and 1263 mg and 1147 mg
[3]
  LV + Septum (mass), Average: 870.8 mg
  RV (right ventricle mass), Average: 240.0 mg
  RV/LV + Septum, Average: 0.3
  Total mass (heart), Average: 1110.8 mg
  LV + Septum (mass): 921 mg and 689 mg and 874 mg and 999 mg
  RV (right ventricle mass): 264 mg and 176 mg and 261 mg and 259 mg
  RV/LV + Septum: 0.29 and 0.26 (2×) and 0.30
  hypertrophy of the right ventricle and pulmonary artery intimal thickening: reduced to a level similar to normal
  therapeutic effect on pulmonary arterial hypertension: excellent therapeutic effect
